Results taken from patent US12649722B2, “Herbicidal cinnoline derivatives” (SYNGENTA CROP PROTECTION AG, priority 2020, dated 2026).

What was measured:
Type in all cases: in vivo
[1] = test system: Solarium nigrum (SOLNI); assay: Pre-emergence Test, SOLNI; settings: 1000 g/ha, evaluated after 13 days
[2] = test system: Amaranthus retoflexus (AMARE); assay: Pre-emergence Test, AMARE; settings: 1000 g/ha, evaluated after 13 days
[3] = test system: Ipornoea hederacea (IPOHE); assay: Pre-emergence Test, IPOHE; settings: 1000 g/ha, evaluated after 13 days
[4] = test system: Echinochloa crus-galli (ECHCG); assay: Pre-emergence Test, ECHCG; settings: 1000 g/ha, evaluated after 13 days
[5] = test system: Lolium perenne (LOLPE); assay: Pre-emergence Test, LOLPE; settings: 1000 g/ha, evaluated after 13 days
[6] = test system: Setaria faberi (SETFA); assay: Pre-emergence Test, SETFA; settings: 1000 g/ha, evaluated after 13 days
[7] = test system: ZEAMX; assay: Pre-emergence Test, ZEAMX; settings: 1000 g/ha, evaluated after 13 days
[8] = test system: ABUTH; assay: Pre-emergence Test, ABUTH; settings: 1000 g/ha, evaluated after 13 days
[9] = test system: Solarium nigrum (SOLNI); assay: Post-emergence Test, SOLNI; settings: sprayed after 8 days cultivation, 1000 g/ha, evaluated after 13 days
Experimental: (§1) Seeds of a variety of test species are sown in standard soil in pots (Amaranthus retoflexus (AMARE), Solarium nigrum (SOLNI), Setaria faberi (SETFA), Lolium perenne (LOLPE), Echinochloa crus-galli (ECHCG), Ipornoea hederacea (IPOHE)). After 8 days cultivation under controlled conditions in a glasshouse (at 24° C./16° C., day/night; 14 hours light; 65% humidity), the plants are sprayed with an aqueous spray solution derived from the formulation of the technical active ingredient in acetone/water (50:50) solution containing 0.5% Tween 20 (polyoxyethylene sorbitan monolaurate, CAS RN 9005-64-5). Compounds are applied at 1000 g/ha unless otherwise stated. The test plants are then grown in a glasshouse under controlled conditions in a glasshouse (at 24° C./16° C., day/night; 14 hours light; 65% humidity) and watered twice daily. After 13 days the test is evaluated for the percentage damage caused to the plant. The biological activities are shown in the following table on a five-point scale (5=81-100%; 4=61-80%; 3=41-60%; 2=21-40%; 1=10-20%; 0=0%; −=not tested).

[10] = test system: Amaranthus retoflexus (AMARE); assay: Post-emergence Test, AMARE; settings: sprayed after 8 days cultivation, 1000 g/ha, evaluated after 13 days
Summary of the method: (§2)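 Pots sown with AMARE, SOLNI, SETFA, LOLPE, ECHCG, IPOHE, kept in glasshouse (24/16 °C, 14 h light, 65% humidity), sprayed at 1000 g/ha unless stated, in acetone/water 50:50 with 0.5% Tween 20. Damage scored after 13 days on a 0–5 scale (5=81–100%, 0=0%).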

[11] = test system: Ipornoea hederacea (IPOHE); assay: Post-emergence Test, IPOHE; settings: sprayed after 8 days cultivation, 1000 g/ha, evaluated after 13 days
Summary of the method: as §2

[12] = test system: Echinochloa crus-galli (ECHCG); assay: Post-emergence Test, ECHCG; settings: sprayed after 8 days cultivation, 1000 g/ha, evaluated after 13 days
Summary of the method: as §2

[13] = test system: Lolium perenne (LOLPE); assay: Post-emergence Test, LOLPE; settings: sprayed after 8 days cultivation, 1000 g/ha, evaluated after 13 days
Experimental: as §1

[14] = test system: Setaria faberi (SETFA); assay: Post-emergence Test, SETFA; settings: sprayed after 8 days cultivation, 1000 g/ha, evaluated after 13 days
Summary of the method: as §2

[15] = test system: ZEAMX; assay: Post-emergence Test, ZEAMX; settings: sprayed after 8 days cultivation, 1000 g/ha, evaluated after 13 days
[16] = test system: ABUTH; assay: Post-emergence Test, ABUTH; settings: sprayed after 8 days cultivation, 1000 g/ha, evaluated after 13 days

Row | SMILES | percentage damage caused to the plant, SOLNI [1] | percentage damage caused to the plant, AMARE [2] | percentage damage caused to the plant, IPOHE [3] | percentage damage caused to the plant, ECHCG [4] | percentage damage caused to the plant, LOLPE [5] | percentage damage caused to the plant, SETFA [6] | percentage damage caused to the plant, ZEAMX [7] | percentage damage caused to the plant, ABUTH [8] | percentage damage caused to the plant, SOLNI [9] | percentage damage caused to the plant, AMARE [10] | percentage damage caused to the plant, IPOHE [11] | percentage damage caused to the plant, ECHCG [12] | percentage damage caused to the plant, LOLPE [13] | percentage damage caused to the plant, SETFA [14] | percentage damage caused to the plant, ZEAMX [15] | percentage damage caused to the plant, ABUTH [16]
1 | N#Cc1cccc2c1c(=O)c(C(=O)O)nn2-c1ccc(OC(F)(F)F)cc1 [Compound P8, 5-cyano-4-oxo-1-[4-(trifluoromethoxy)phenyl] cinnoline-3-carboxylic acid] | 1 (1=10-20%) | 2 (2=21-40%) | 1 (1=10-20%) | 5 (5=81-100%) | 4 (4=61-80%) | 5 (5=81-100%) | 0 (0=0%) | 1 (1=10-20%) | 3 (3=41-60%) | 4 (4=61-80%) | 4 (4=61-80%) | 4 (4=61-80%) | 4 (4=61-80%) | 4 (4=61-80%) | 2 (2=21-40%) | 1 (1=10-20%)
2 | CO/N=C(\C)c1cccc2c1c(=O)c(C(=O)O)nn2-c1ccc(OC(F)(F)F)cc1 [Compound P2, 5-[(E)-N-methoxy-C-methyl-carbonimidoyl]-4-oxo-1-[4-(trifluoromethoxy)phenyl] cinnoline-3-carboxylic acid] | 2 (2=21-40%) | 0 (0=0%) | 2 (2=21-40%) | 5 (5=81-100%) | 4 (4=61-80%) | 5 (5=81-100%) | 4 (4=61-80%) | 3 (3=41-60%) | 2 (2=21-40%) | 1 (1=10-20%) | 3 (3=41-60%) | 4 (4=61-80%) | 3 (3=41-60%) | 4 (4=61-80%) | 3 (3=41-60%) | 4 (4=61-80%)
3 | C=C(OCC)c1cccc2c1c(=O)c(C(=O)OC)nn2-c1ccc(OC(F)(F)F)cc1 [Compound P3, methyl 5-(1-ethoxyvinyl)-4-oxo-1-[4-(trifluoromethoxy)phenyl] cinnoline-3-carboxylate] | 2 (2=21-40%) | 0 (0=0%) | 2 (2=21-40%) | 4 (4=61-80%) | 4 (4=61-80%) | 5 (5=81-100%) | 4 (4=61-80%) | 3 (3=41-60%) | 4 (4=61-80%) | 1 (1=10-20%) | 3 (3=41-60%) | 4 (4=61-80%) | 4 (4=61-80%) | 4 (4=61-80%) | 3 (3=41-60%) | 3 (3=41-60%)
4 | COC(=O)c1nn(-c2ccc(OC(F)(F)F)cc2)c2cccc(C(C)=O)c2c1=O [Compound P9, methyl 5-acetyl-4-oxo-1-[4-(trifluoromethoxy)phenyl] cinnoline-3-carboxylate] | 3 (3=41-60%) | 1 (1=10-20%) | 3 (3=41-60%) | 5 (5=81-100%) | 4 (4=61-80%) | 5 (5=81-100%) | 4 (4=61-80%) | 3 (3=41-60%) | 4 (4=61-80%) | 1 (1=10-20%) | 2 (2=21-40%) | 4 (4=61-80%) | 4 (4=61-80%) | 4 (4=61-80%) | 4 (4=61-80%) | 3 (3=41-60%)
